From US20220372040A1, “METTL3 MODULATORS” (Accent Therapeutics, Inc., priority 2020, published 2022)
pIC50: −log10 of the molar value. Where a name gives a salt, the structure may show the parent alone. Read-outs that look alike come from different tables or passages of the source. Each block holds one compound with its values, some of them ahead of it.

Legend:
Type in all cases: biochemical
[1] = molecular target: METTL3/METTL14 (Homo sapiens, UniProt Q86U44); assay: METTL3-14 standard enzyme assay (3H-SAM flashplate scintillation); conditions: METTL3/METTL14 2.5 nM, RNA 100 nM, 3H-SAM 100 nM, 30 min
Chain of METTL3/METTL14 (Q86U44 whole entry, species assumed): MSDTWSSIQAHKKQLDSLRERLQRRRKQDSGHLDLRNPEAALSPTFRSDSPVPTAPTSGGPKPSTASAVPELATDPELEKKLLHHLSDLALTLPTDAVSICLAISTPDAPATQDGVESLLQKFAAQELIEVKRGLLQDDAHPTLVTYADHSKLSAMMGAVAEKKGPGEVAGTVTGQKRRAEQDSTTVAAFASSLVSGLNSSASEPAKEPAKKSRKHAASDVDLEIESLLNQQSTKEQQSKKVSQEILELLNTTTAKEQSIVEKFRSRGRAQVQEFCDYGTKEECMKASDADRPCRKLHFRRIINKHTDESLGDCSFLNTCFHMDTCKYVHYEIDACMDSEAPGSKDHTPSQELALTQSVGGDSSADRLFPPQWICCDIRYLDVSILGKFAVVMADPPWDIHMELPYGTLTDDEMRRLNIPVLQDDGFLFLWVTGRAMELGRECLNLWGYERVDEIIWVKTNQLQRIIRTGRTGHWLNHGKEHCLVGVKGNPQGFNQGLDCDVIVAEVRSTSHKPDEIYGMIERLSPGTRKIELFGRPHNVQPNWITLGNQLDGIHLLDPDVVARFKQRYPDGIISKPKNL
Chain of METTL3/METTL14 (Q9HCE5 whole entry partner, species assumed): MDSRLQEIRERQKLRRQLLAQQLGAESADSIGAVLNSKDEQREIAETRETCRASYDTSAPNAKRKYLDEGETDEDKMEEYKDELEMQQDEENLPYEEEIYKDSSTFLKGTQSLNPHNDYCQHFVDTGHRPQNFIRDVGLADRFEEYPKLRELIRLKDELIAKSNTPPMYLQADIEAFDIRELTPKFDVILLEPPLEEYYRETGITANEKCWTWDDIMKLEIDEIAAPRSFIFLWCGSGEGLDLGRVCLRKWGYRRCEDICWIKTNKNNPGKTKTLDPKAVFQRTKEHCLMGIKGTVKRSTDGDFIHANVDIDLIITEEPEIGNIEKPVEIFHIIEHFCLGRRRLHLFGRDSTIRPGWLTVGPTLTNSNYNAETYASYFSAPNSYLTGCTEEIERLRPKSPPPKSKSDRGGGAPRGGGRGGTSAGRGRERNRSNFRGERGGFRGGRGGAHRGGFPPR
Method: METTL3-14 Standard Enzyme Assay
(§1) Assays were performed in a 25 μl-volume in 384-well V-bottom polypropylene microplates (Greiner Bio-One, cat. No. 781280) at ambient temperature. Optimized 1× assay buffer was 20 mM HEPES pH 7.5, 50 mM KCl, 250 μM MgCl2, 1 mM DTT, 0.01% Tween, 0.01% BSG, 0.004 U/μl RNAseOUT (cat. No. 10777019, ThermoFisher Scientific, Waltham, Mass.). For compound screening METTL3/METTL14 (final concentration, f.c.=2.5 nM) was added using a Multidrop Combi (ThermoFisher Scientific, Waltham, Mass.) and preincubated for 5 min. Reactions were started by adding 3′ biotinylated RNA (UCUGGACUAAA-biotin) (f.c.=100 nM) and 3H-SAM (f.c.=100 nM) substrates. Reactions proceeded for 30 minutes and were quenched with excess non-radioactive SAM (f.c.=15 μM). The reactions were then transferred to streptavidin-coated flashplates and incubated for 2 hours at 25° C. Following two washing cycles with 0.1% Tween-20, the plates were sealed and read on a TopCount (PerkinElmer, Waltham, Mass.) plate-based scintillation counter. For determination of kinetic parameters, reaction times were optimized so that measurements were taken during the initial velocity phase of the reaction.

[2] = molecular target: PRMT5-MEP50 (Homo sapiens, UniProt O14744); assay: PRMT5 assay (3H-SAM flashplate scintillation); conditions: PRMT5-MEP50 2.5 nM, histone H4 peptide 100 nM, 3H-SAM 250 nM, 60 min
Chain of PRMT5-MEP50 (O14744 whole entry): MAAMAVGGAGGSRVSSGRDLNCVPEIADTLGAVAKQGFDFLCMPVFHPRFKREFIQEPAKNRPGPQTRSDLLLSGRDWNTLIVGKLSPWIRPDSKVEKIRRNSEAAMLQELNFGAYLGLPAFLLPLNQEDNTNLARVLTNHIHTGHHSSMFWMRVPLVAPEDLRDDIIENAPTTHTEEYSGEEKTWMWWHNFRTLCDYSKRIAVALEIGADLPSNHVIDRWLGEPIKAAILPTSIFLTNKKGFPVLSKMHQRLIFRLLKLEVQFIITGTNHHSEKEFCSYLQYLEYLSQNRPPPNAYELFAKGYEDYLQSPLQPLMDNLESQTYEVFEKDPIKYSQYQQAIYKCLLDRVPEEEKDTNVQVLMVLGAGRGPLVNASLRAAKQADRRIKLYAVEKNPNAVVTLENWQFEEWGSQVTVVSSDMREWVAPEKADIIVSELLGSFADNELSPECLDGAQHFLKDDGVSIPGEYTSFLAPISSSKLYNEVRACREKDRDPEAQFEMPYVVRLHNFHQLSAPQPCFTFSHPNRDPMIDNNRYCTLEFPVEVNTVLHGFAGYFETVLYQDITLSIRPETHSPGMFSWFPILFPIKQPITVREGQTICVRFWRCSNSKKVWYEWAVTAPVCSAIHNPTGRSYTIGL
Chain of PRMT5-MEP50 (Q9BQA1 whole entry partner): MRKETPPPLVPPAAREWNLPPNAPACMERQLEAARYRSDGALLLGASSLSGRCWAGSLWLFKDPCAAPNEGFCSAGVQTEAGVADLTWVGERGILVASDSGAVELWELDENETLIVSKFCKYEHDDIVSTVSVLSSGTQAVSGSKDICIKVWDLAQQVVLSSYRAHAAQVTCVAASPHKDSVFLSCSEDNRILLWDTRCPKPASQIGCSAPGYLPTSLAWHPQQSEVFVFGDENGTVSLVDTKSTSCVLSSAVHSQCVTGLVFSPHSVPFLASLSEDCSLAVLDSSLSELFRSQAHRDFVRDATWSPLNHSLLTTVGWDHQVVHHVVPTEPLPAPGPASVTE
Method: Assays were performed in a 25 μl-volume in 384-well V-bottom polypropylene microplates (Greiner Bio-One, cat. No. 781280) at ambient temperature. Optimized 1× assay buffer was 20 mM Tris-HCl pH 8.0, 1 mM DTT, […]. For compound screening PRMT5-MEP50 (final concentration, f.c.=2.5 nM) was added using a Multidrop Combi (ThermoFisher Scientific, Waltham, Mass.) and preincubated for 5 min. Reactions were started by adding 3′ biotinylated histone H4 peptide acetylated on serine 1 (Ac-[…]-Biotin) (f.c.=100 nM) and 3H-SAM (f.c.=250 nM) substrates. Reactions proceeded for 60 minutes and were quenched with excess non-radioactive SAM (f.c.=15 μM). The reactions were then transferred to streptavidin-coated flashplates and incubated for 2 hours at 25° C. Following two washing cycles with 0.1% Tween-20, the plates were sealed and read on a TopCount (PerkinElmer, Waltham, Mass.) plate-based scintillation counter. For determination of kinetic parameters, reaction times were optimized so that measurements were taken during the initial velocity phase of the reaction.

[3] = molecular target: T1, METTL16 (Homo sapiens, UniProt Q86W50); assay: METTL16 assay (3H-SAM flashplate scintillation); conditions: METTL16 100 nM, RNA 50 nM, 3H-SAM 200 nM, SAM 800 nM, 20 min
T1 sequence (Q86W50 1-562): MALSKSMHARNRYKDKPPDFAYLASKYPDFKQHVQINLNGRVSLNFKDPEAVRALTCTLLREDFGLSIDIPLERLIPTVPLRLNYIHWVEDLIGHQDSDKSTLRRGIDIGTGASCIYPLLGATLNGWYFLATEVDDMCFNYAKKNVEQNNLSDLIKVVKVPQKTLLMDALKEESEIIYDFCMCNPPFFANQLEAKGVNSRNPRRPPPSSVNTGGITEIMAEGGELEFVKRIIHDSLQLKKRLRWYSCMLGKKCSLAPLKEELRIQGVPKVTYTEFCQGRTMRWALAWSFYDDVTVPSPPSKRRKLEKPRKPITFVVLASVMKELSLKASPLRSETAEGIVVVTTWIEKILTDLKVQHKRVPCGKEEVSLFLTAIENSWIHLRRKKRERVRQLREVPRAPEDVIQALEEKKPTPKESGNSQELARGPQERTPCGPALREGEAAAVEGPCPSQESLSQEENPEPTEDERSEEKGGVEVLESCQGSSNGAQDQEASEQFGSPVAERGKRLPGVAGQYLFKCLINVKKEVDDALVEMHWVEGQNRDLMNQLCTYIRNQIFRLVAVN
Method: Assays were performed in a 25 μl-volume in 384-well V-bottom polypropylene microplates (Greiner Bio-One, cat. No. 781280) at ambient temperature. Optimized 1× assay buffer was 20 mM HEPES pH 7.5, 50 mM KCl, 1 mM DTT, 0.01% Tween, 0.01% BSG, 0.004 U/μl RNAseOUT (cat. No. 10777019, ThermoFisher Scientific, Waltham, Mass.). For compound screening METTL16 (final concentration, f.c.=100 nM) was added using a Multidrop Combi (ThermoFisher Scientific, Waltham, Mass.) and preincubated for 5 min. Reactions were started by adding 3′ biotinylated RNA ([…]-biotin) (f.c.=50 nM), 3H-SAM (f.c.=200 nM) and non-radiolabeled SAM (f.c.=800 nM) substrates. Reactions proceeded for 20 minutes and were quenched with excess non-radioactive SAM (f.c.=100 μM). The reactions were then transferred to streptavidin-coated flashplates and incubated for 2 hours at 25° C. Following two washing cycles with 0.1% Tween-20, the plates were sealed and read on a TopCount (PerkinElmer, Waltham, Mass.) plate-based scintillation counter. For determination of kinetic parameters, reaction times were optimized so that measurements were taken during the initial velocity phase of the reaction.

[4] = molecular target: METTL1/WDR4 (Homo sapiens, UniProt Q9UBP6); assay: METTL1 assay (3H-SAM flashplate scintillation)
Chain of METTL1/WDR4 (Q9UBP6 whole entry, species assumed): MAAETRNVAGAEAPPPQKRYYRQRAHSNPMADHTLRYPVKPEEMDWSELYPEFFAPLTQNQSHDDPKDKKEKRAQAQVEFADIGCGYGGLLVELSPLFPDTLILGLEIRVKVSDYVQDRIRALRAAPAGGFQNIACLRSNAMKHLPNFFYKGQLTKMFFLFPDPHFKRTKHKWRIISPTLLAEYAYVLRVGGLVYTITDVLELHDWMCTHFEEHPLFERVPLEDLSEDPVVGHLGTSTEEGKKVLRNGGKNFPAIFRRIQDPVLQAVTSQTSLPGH
Chain of METTL1/WDR4 (P57081 whole entry partner, species assumed): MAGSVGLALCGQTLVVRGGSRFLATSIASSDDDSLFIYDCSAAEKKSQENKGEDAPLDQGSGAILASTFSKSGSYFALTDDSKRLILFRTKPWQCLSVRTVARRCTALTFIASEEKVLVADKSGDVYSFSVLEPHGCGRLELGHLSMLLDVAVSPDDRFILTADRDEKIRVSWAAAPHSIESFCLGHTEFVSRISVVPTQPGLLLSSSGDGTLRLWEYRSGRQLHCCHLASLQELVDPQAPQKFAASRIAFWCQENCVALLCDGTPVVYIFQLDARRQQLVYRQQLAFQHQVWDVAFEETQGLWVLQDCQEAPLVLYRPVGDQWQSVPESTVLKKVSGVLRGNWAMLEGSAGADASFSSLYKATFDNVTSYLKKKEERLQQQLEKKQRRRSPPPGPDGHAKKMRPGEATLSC
Method: as §1, with “METTL1/WDR4” for “METTL3/METTL14”, “f.c.=6.25” for “f.c.=2.5”, “([…]-biotin) (f.c.=25” for “(UCUGGACUAAA-biotin) (f.c.=100”, “(f.c.=60” for “(f.c.=100”, “20” for “30”

[5] = METTL1/WDR4 6.25 nM, RNA 25 nM, 3H-SAM 60 nM, 20 min, read-out: METTL1 IC50

SMILES: Nc1ncnc2c1ccn2-c1cncc(COc2ccc3ccc(N4CCCC4)nc3c2)c1 [Compound I-26]
pIC50 [1]: 7.00 to 8.00
pIC50 [2]: < 6.00
pIC50 [3]: < 6.00

SMILES: CNc1ccc2ccc(OCc3cc(-n4cc(Cl)c5c(N)ncnc54)cnc3N)cc2n1 [Compound I-28]
pIC50 [1]: 7.00 to 8.00
pIC50 [2]: < 6.00
pIC50 [4, 5]: < 6.00
pIC50 [3]: < 6.00

SMILES: C=CC(=O)Nc1nc(N)c2ccn(-c3cncc(COc4ccc5ccc(NC)nc5c4)c3)c2n1 [Compound I-31]
pIC50 [1]: < 6.00
pIC50 [2]: < 6.00
pIC50 [3]: < 6.00

SMILES: CNc1ccc2ccc(OCc3cccc(-n4cc(CCN(C)C)c5c(N)ncnc54)c3)cc2n1 [Compound I-32]
pIC50 [1]: 6.00 to 7.00
pIC50 [2]: < 6.00
pIC50 [4, 5]: < 6.00
pIC50 [3]: < 6.00

SMILES: Nc1ncnc2c1c(Cl)cn2-c1nnc(COc2ccc3ccc(N4CCCC4)nc3c2)s1 [Compound I-38, 5-chloro-7-(5-(((2-(pyrrolidin-1-yl)quinolin-7-yl)oxy)methyl)-1,3,4-thiadiazol-2-yl)-7H-pyrrolo[2,3-d]pyrimidin-4-amine trifluoroacetate]
pIC50 [1]: < 6.00
pIC50 [2]: < 6.00
pIC50 [4]: < 6.00

SMILES: C=CC(=O)N(CCC(=O)O)c1nc(N)c2ccn(-c3cncc(COc4ccc5ccc(NC)nc5c4)c3)c2n1 [Compound I-41]
pIC50 [1]: < 6.00
pIC50 [2]: < 6.00
pIC50 [3]: < 6.00

SMILES: CNc1ccc2ccc(OCc3cncc(-n4ccc5c(N)nc(N(C)C)nc54)c3)cc2n1 [Compound I-49]
pIC50 [1]: < 6.00
pIC50 [2]: < 6.00
pIC50 [3]: < 6.00

SMILES: CNc1ccc2ccc(OCc3cncc(-n4ccc5c(N)nc(NC)nc54)c3)cc2n1 [Compound I-50]
pIC50 [1]: < 6.00
pIC50 [2]: < 6.00
pIC50 [3]: < 6.00

Results, then the compound that gave them:

pIC50 [1]: 7.00 to 8.00
pIC50 [2]: < 6.00
pIC50 [3]: < 6.00
SMILES: CNc1ccc2ccc(OCc3cncc(-n4cc(CCN(C)C)c5c(N)ncnc54)c3)cc2n1 [Compound I-27]

pIC50 [1]: 7.00 to 8.00
pIC50 [2]: < 6.00
pIC50 [3]: < 6.00
SMILES: CC(C)Nc1ccc2ccc(OCc3cncc(-n4cc(Cl)c5c(N)ncnc54)c3)cc2n1 [Compound I-39]

pIC50 [1]: 7.00 to 8.00
pIC50 [2]: < 6.00
pIC50 [3]: < 6.00
SMILES: Nc1ncnc2c1c(Cl)cn2-c1cncc(COc2ccc3ccc(N4CCCC4)nc3c2)c1 [Compound I-40]

pIC50 [1]: 7.00 to 8.00
pIC50 [2]: < 6.00
pIC50 [3]: < 6.00
SMILES: CNc1ccc2ccc(OCc3cccc(-n4cc(Br)c5c(N)ncnc54)c3)cc2n1 [Compound I-43]

pIC50 [1]: 7.00 to 8.00
pIC50 [2]: < 6.00
pIC50 [3]: < 6.00
SMILES: CNc1ccc2ccc(OCc3cncc(-n4ccc5c(C)ncnc54)c3)cc2n1 [Compound I-44]

pIC50 [1]: 7.00 to 8.00
pIC50 [2]: < 6.00
pIC50 [3]: < 6.00
SMILES: CNc1ccc2ccc(CCc3cncc(-n4cc(Cl)c5c(N)ncnc54)c3)cc2n1 [Compound I-51]
